# Data: PubChem BioAssay (NCI)
#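 All cell lines were grown in 96-well plates and treated with compound for 48 hours. TGI: concentration producing complete growth inhibition.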
# Legend:
# Experiment in all cases: NCI-60 cell line screen, 48 h
# HOP-92 NSCLC = tested on: HOP-92 NSCLC
# SK-MEL-28 melanoma = tested on: SK-MEL-28 melanoma
# U251 CNS = tested on: U251 CNS
# NCI-H460 lung = tested on: NCI-H460 lung
# SW-620 colon = tested on: SW-620 colon
# SNB-19 CNS = tested on: SNB-19 CNS
# MOLT-4 leukemia = tested on: MOLT-4 leukemia
# UO-31 renal = tested on: UO-31 renal
# HOP-62 NSCLC = tested on: HOP-62 NSCLC
# HCT-116 colon = tested on: HCT-116 colon
# SNB-75 CNS = tested on: SNB-75 CNS
# CCRF-CEM leukemia = tested on: CCRF-CEM leukemia
# DU-145 prostate = tested on: DU-145 prostate
# NCI/ADR-RES ovarian = tested on: NCI/ADR-RES ovarian
# MDA-MB-231 breast = tested on: MDA-MB-231 breast
# MDA-MB-435 = tested on: MDA-MB-435
# T-47D breast = tested on: T-47D breast
# MDA-N = tested on: MDA-N
SMILES,TGI (HOP-92 NSCLC),TGI (SK-MEL-28 melanoma),TGI (U251 CNS),TGI (NCI-H460 lung),TGI (SW-620 colon),TGI (SNB-19 CNS),TGI (MOLT-4 leukemia),TGI (UO-31 renal),TGI (HOP-62 NSCLC),TGI (HCT-116 colon),TGI (SNB-75 CNS),TGI (CCRF-CEM leukemia),TGI (DU-145 prostate),TGI (NCI/ADR-RES ovarian),TGI (MDA-MB-231 breast),TGI (MDA-MB-435),TGI (T-47D breast),TGI (MDA-N)
CSc1nc2[nH]c(=O)c(C)nc2c(=O)[nH]1,> 100 µM,> 100 µM,> 100 µM,> 100 µM,> 100 µM,> 100 µM,> 100 µM,> 100 µM,> 100 µM,> 100 µM,> 100 µM,> 100 µM,,,,,,
NNc1[nH]c(=S)[nH]c1C(N)=O,,> 100 µM,> 100 µM,> 100 µM,> 100 µM,,> 100 µM,> 100 µM,> 100 µM,> 100 µM,> 100 µM,> 100 µM,> 100 µM,> 100 µM,> 100 µM,> 100 µM,> 100 µM,
COc1cc2c(cc1OC)C(N)CC2=O (stereo not drawn),> 100 µM,> 100 µM,> 100 µM,,> 100 µM,> 100 µM,> 100 µM,> 100 µM,> 100 µM,> 100 µM,> 100 µM,> 100 µM,> 100 µM,> 100 µM,> 100 µM,> 100 µM,> 100 µM,
CC(=O)Nc1ccc(C(=O)NN2C(=O)C(Cl)C2c2ccccc2O)cc1 (stereo not drawn),> 100 µM,> 100 µM,> 100 µM,> 100 µM,> 100 µM,> 100 µM,,> 100 µM,41.6 µM,> 100 µM,78.9 µM,> 100 µM,,,,,,
CC1(C)CC(=O)c2c(nc(SSc3nc4c(c(-c5ccccc5)c3C#N)C(=O)CC(C)(C)C4)c(C#N)c2-c2ccccc2)C1,> 10 µM,> 10 µM,> 10 µM,> 10 µM,> 10 µM,> 10 µM,> 10 µM,> 10 µM,> 10 µM,> 10 µM,> 10 µM,> 10 µM,> 10 µM,> 10 µM,,,> 10 µM,
Cc1ccc(S(=O)(=O)N2CCCC2C(=O)O[C@H]2CC[C@H]3CC=C[C@H]32)cc1 (stereo partly drawn),,96.7 µM,> 100 µM,91.4 µM,> 100 µM,> 100 µM,33.4 µM,> 100 µM,> 100 µM,> 31.6 µM,> 100 µM,> 100 µM,,77.2 µM,> 100 µM,> 100 µM,> 100 µM,> 100 µM
COC(=O)[C@@]12OC[C@]34C([C@@H](O)C1O)[C@@]1(C)CC(=O)C(OC(=O)/C=C(/c5ccccc5)C(F)(F)F)=C(C)C1C[C@H]3OC(=O)[C@H](O)[C@H]42 (stereo partly drawn),43.7 µM,27 µM,> 50 µM,23 µM,,23.2 µM,26.9 µM,> 50 µM,46.1 µM,> 50 µM,31.3 µM,> 50 µM,,,,,,
CC(C)C(/C=C/c1ccc(Br)cc1)=N\NC(N)=O,> 100 µM,> 100 µM,> 100 µM,> 100 µM,> 100 µM,> 100 µM,> 100 µM,66.6 µM,> 100 µM,> 100 µM,> 100 µM,> 100 µM,,,,,,
